Assay results as given in US8815806B2, “Yellow pea seed protein-derived peptides” (University of Manitoba, priority 2009, dated 2014).

Tests used:
[1] = system: spontaneously hypertensive rats (SHR); test: Spontaneously hypertensive rats, oral gavage, systolic blood pressure by tail-cuff; format: in vivo, rat; details: for change in systolic blood pressure (ΔSBP): 24 hour after oral gavage, 30 mg/kg BW; for hypotensive activities, duration of effect: over a 24 hr period, oral 30 mg/kg BW, FIG. 16
Procedure: Animal experiments were carried out following the Canadian Council on Animal Care ethics guidelines with a protocol approved by the University of Manitoba Animal Protocol and Management Review Committee. The spontaneously hypertensive rats (SHR) were kept in the Animal Housing Facility at the Richardson Centre for Functional Foods and Nutraceuticals, University of Manitoba under a 12-hr day and night cycle at 21° C. and were fed a regular chow diet and tap water, ad libitum. The SHR were divided into […] that received the following treatments (dissolved in phosphate buffered saline, pH 7.2): ADMFPF (SEQ ID NO. 23) peptide (n=6), WMP (SEQ ID NO. 15) peptide (n=6), captopril (positive control, n=6), saline (negative control, n=6). The peptides (each at 30 mg/kg body weight, BW) and captopril (3 mg/kg BW) were administered to the SHR by oral gavage followed by measurement of systolic blood pressure (SBP) at 2, 4, 6, 8 and 24 hr by the tail-cuff method in slightly anesthesized rats. Prior to sample administration, the baseline (time zero) SBP was determined. In order to mitigate the blood pressure (BP) depression effect of isofluorane, the gas flow was optimized such that rats became conscious usually within 3-4 min after removal from the chamber, which provided enough time to perform the blood pressure measurement. Rats were first anesthesized in a chamber (maintained at about 40° C.) with 4% isofluorane for 4 min. They were then removed from the isofluorane chamber and tail-cuff measurement of blood pressure performed in the […]. The change in SBP (ΔSBP, mmHg) was determined by subtracting the data for the different time points from their respective baseline data.

human recombinant renin = molecular target: T1, human recombinant renin (Homo sapiens, UniProt P00797); test: Renin inhibitory activity assay (fluorometric); format: biochemical; details: Table 1; peptide concentration not given
T1 construct: purchased Cayman Chemical; host or cells: HEK cells
T1 sequence (P00797 67-406): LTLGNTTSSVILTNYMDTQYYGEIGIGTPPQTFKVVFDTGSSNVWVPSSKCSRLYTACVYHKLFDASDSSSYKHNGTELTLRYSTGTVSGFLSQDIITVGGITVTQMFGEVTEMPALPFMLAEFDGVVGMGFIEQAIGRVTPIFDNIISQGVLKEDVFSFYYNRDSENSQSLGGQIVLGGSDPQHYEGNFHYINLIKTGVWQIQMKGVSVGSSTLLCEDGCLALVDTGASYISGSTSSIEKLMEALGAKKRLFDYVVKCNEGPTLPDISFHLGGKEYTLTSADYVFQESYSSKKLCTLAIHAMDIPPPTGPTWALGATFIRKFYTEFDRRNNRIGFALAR
Procedure: Renin inhibitory activity assays were carried out on a Shimadzu RF 1501 spectrofluorometer equipped with thermostated cell holder according to the method of Wang, Chung, Holzman, & Krafft (1993) with some modifications (FIG. 5 and Table 1). The following instrumental parameters were used: excitation wavelength, 340 nm; emission wavelength, 490 nm; excitation and emission bandwidth, 10 nm. A standard 2 mL, 1 cm pathlength cuvettes containing 1 mL of buffer (or 1 mL varied peptide concentrations) and 1 mL of 2.5 μM substrate, was equilibrated at 37° C. for 5 min to gain thermal equilibrium. A 15 μL of renin (0.4 μg renin) was then added to the cuvette to initiate the reaction. The time dependent increase of fluorescence intensity was monitored for 5 min. The initial reaction velocity, expressed in arbitrary fluorescence units per minute (FU/min), was calculated by least-squares analysis of the initial phase of the reaction. The renin inhibiting activity of the peptide fractions and the individual peptides within are described in Table 1.
Renin inhibiting assay was modified from the fluorometric assay developed for renin activity measurement (FIG. 5). […] The Michaelis-Menten constant (Km) in our study is 3.8 μM for human recombinant renin in the absence of peptide fractions. This value is close to the reported KM of 3.6 μM using the same source of renin and substrate under similar assay conditions (Holzman et al 1991). However, Km of human recombinant renin was also reported to be 1.62 μM (Toshihisa et al., 1992), or 1.25 μM in purified human renal renin acting on pure human plasma angiotensingen at pH 5.7 (Cumin et al., 1987), 1.54 μM at pH 6.5 (Slater and Strout 1981). The Km value for the reaction between renin and substrate also depends on pH, ionic strength, the medium and the assay procedure used (Poulsen et al., 1976). The Michaelis-Menten constants were increased to 6.3 and 6.1 μM, respectively in the presence of peptide fractions of T4 and T5, indicating decreased binding ability between renin and substrate because of the presence of competitive peptide inhibitors.

Molecule | RENIN INHIBITION % (human recombinant renin) [%] | other results
C[C@H](CS)C(=O)N1CCC[C@H]1C(=O)O [Captopril, captopril, reference compound] |  | hypotensive effect compared to ADMFPF ([1]; after 24 hour, captopril 3 mg/kg BW oral): less effective
SEQ ID NO. 18: peptide identified within the bioactive fractions of yellow pea protein hydrolysate (WPHT; listed as Pisum sativum) | 9.30 | 
WMP (listed as Pisum sativum) [SEQ ID NO. 15] | 43.37 | change in systolic blood pressure (ΔSBP) [1]: −14 mmHg; hypotensive activities, duration of effect [1]: comparable to captopril; hypotensive effects compared with ADMFPF ([1]; up to 8 hours after oral administration): initial higher hypotensive effects
SEQ ID NO. 19: peptide identified within the bioactive fractions of yellow pea protein hydrolysate (YPRE; listed as Pisum sativum) | 22.19 | 
SEQ ID NO. 17: peptide identified within the bioactive fractions of yellow pea protein hydrolysate (RSPD; listed as Pisum sativum) | 57.53 | 
SEQ ID NO. 13: peptide identified within the bioactive fractions of yellow pea protein hydrolysate (WLP; listed as Pisum sativum) | 4.85 | 
SEQ ID NO. 14: peptide identified within the bioactive fractions of yellow pea protein hydrolysate (RAAP; listed as Pisum sativum) | 15.39 | 
ADMFPF (listed as Pisum sativum) [SEQ ID NO. 23] |  | change in systolic blood pressure (ΔSBP) [1]: −25 mmHg; hypotensive activities, duration of effect [1]: comparable to captopril
